Test results reported in ChEMBL document CHEMBL1127945, “5-Aryl-, butenolide, a new class of antibacterial derived from the N-aryl oxazolidinone DUP 721” (1994).
In brackets after ≈: the same amount, converted by molar mass.

How the values were obtained:
Type in all cases: functional
[1] = system: Enterococcus faecalis; assay: In vitro antibacterial activity against vancomycin resistant strain Streptococcus faecalis 02D2DU17
[2] = system: Staphylococcus aureus; assay: In vitro antibacterial activity against sensitive strain Staphylococcus aureus SG 511
[3] = system: Streptococcus pyogenes; assay: In vitro antibacterial activity against sensitive strain Streptococcus pyogenes 77A
[4] = system: Staphylococcus epidermidis; assay: In vitro antibacterial activity against oxacilline resistant strain Staphylococcus epidermidis 012GO39
[5] = system: Enterococcus faecium; assay: In vitro antibacterial activity against sensitive strain Streptococcus faecium M78L
[6] = system: Escherichia coli; assay: In vitro antibacterial activity against Escherichia coli UC 1894
[7] = system: Enterococcus faecium; assay: In vitro antibacterial activity against vancomycin resistant strain Streptococcus faecium 02D3IP1
[8] = system: Staphylococcus aureus; assay: In vitro antibacterial activity against oxacilline resistant strain Staphylococcus aureus O11CB20

SMILES	MIC [1] [µg/mL]	MIC [2] [µg/mL]	MIC [3] [µg/mL]	MIC [4] [µg/mL]	MIC [5] [µg/mL]	MIC [6] [µg/mL]	MIC [7] [µg/mL]	MIC [8] [µg/mL]
CC(=O)NC[C@@H]1CC(=O)N(c2ccc(C(C)=O)cc2)C1	> 40	> 40	> 40	> 40	> 40	> 40	> 40	–
CC(=O)NC[C@@H]1CCN(c2ccc(C(C)=O)cc2)C1	> 40	> 40	> 40	> 40	> 40	> 40	> 40	–
CC(=O)NC[C@H]1C=C(c2ccc(C(C)=O)cc2)C(=O)O1	2.5 (≈ 9.15 µM)	1.2 (≈ 4.39 µM)	2.5 (≈ 9.15 µM)	2.5 (≈ 9.15 µM)	5 (≈ 18.3 µM)	> 40	2.5 (≈ 9.15 µM)	1.2 (≈ 4.39 µM)
CC(=O)NC[C@H]1CN(c2ccc(C(C)=O)cc2)C(=O)O1 [DUP-721]	2.5 (≈ 9.05 µM)	1.2 (≈ 4.34 µM)	0.6 (≈ 2.17 µM)	2.5 (≈ 9.05 µM)	2.5 (≈ 9.05 µM)	> 40	< 1.2	1.2 (≈ 4.34 µM)
